{"source": "patent EP4461287A1", "about": "“SKIN CARE COSMETIC COMPOSITION” (Creaciones Aromáticas Industriales, S.A., priority 2023, dated 2024)", "key": {"[1]": {"assay": "Cutaneous penetration by Franz cell diffusion, HPLC quantification in the receptor solution", "assay_type": "in vitro ADME", "settings": "20 h, pig skin, 32°C, receptor PBS pH 7.4, 25 µl applied", "experimental": "Cutaneous penetration of free acetylhexapeptide-8 and encapsulated acetylhexapeptide-8 (nanocapsule of the present invention) was determined by means Franz cells diffusion. The pig skin samples were used to carry out the experiment, cut into circles 2.5 cm in diameter. The skin was assembled on the receptor compartment of a Franz diffusion cell system with the stratum corneum facing up towards the donor compartment. As a solution for the receptor, 18 ml of phosphate buffered saline (PBS) pH 7.4 stirred by a magnetic rod at 700 rpm were utilized. A 25 µl aliquot of each of the assay formulations was applied on the pig skin. The Franz diffusion cells were kept at 32°C, and after 20 h of incubation, the receptor solution was analyzed by HPLC (I=220 nm) to quantify the amount of acetylhexapeptide-8 was penetrated the skin. Triplicates of the assay were done.\nHPLC analysis was performed utilizing a Waters 996 instrument with diode array detector equipped with Waters 2695 separations module and Millenium software; a C18 4.6x150 mm 5 µm reversed phase column by Waters was used. […]\nThe quantification of acetylhexapeptide-8 in the fluid (PBS) of the receptor chamber was evaluated through HPLC at 20 hours after application of 25 µL of the two solutions on the pig skin."}, "[2]": {"assay": "Moisturizing efficacy: transepidermal water loss (TEWL) study by corneometry on forearms of volunteers", "assay_type": "in vivo", "settings": "forearm, women 45-50 years", "experimental": "The transpidermal water loss (TEWL) study by corneometry was performed to compare the moisturizing activity of the composition of the present invention and its main components.\nThe assay was carried out on 20 women between the ages 45 and 50 years. None of the patients had suffered or had any medical history or relevant skin pathologies.\nThe volunteers were divided into four groups. Daily, for 7 days, the assigned sample was applied to one of the forearms of each group (group 1 sample with free sodium hyaluronate, group 2 sample with free Acetylhexapeptide-8, group 3 sample with free sodium hyaluronate and Acetylhexapeptide-8 and group 4 sample with complete encapsulation (Acetylhexapeptide-8, sodium hyaluronate, polycaprolactone and chitosan). The opposite forearm of each volunteer was the control.\nMeasurements were taken 2 hours and 7 days after the first application. Epidermal capacitance was evaluated using a CM 825 Corneometer, which allows quantification of surface humidity variations. Measurements were taken in an air-conditioned room (temperature 23°C, relative humidity 34.5%). […]\nThis trial compared the moisturizing capacity of free HA, free Acetylhexapeptide-8, free HA+Acetylhexapeptide-8 and the composition of the present invention (Acetylhexapeptide-8-HA@PCL-Chi-HA) by measuring the skin loss of water on the forearm of the volunteers analyzed. […]"}, "chromaffin cells": {"test_system": "chromaffin cells", "assay": "Inhibition of Ca2+-induced catecholamine ([3H]noradrenaline) release in digitonin-permeabilized chromaffin cells", "assay_type": "cell-based, bovine", "experimental": "Chromaffin cell cultures were prepared from bovine adrenal glands by collagenase digestion and then separated from debris and erythrocytes by centrifugation. Briefly, the cells were maintained in monolayer cultures and used between the third and sixth day after plating. All the experiments were carried out at 37°C. Secreted neurotransmitter [^3H]noradrenaline was determined in cells permeabilized with digitonin. Neurotransmitter (catecholamines) release was stimulated by addition of 10 µM) Ca^2+.\nTo evaluate the enhancement of this activity of encapsulated Acetylhexapeptide-8, the inhibitory capacity on Ca^2+-induced catecholamine release was measured in digitonin-permeabilized chromaffin cells culture.\nIn particular, the activity of the free peptide free (acetylhexapeptide-8), the peptide encapsulated in Policaprolactone-Chitosan (Acetylhexapeptide-8@PCL-Chi) and the peptide encapsulated with sodium hyaluronate (HA) in PCL-Chi-HA (Acetylhexapeptide-8-HA@PCL-Chi-HA) (present invention) were compared."}, "[3]": {"test_system": "women with facial wrinkles", "assay": "Clinical anti-wrinkle study, preorbital area, 3D skin topography / confocal microscopy of silicone impressions", "assay_type": "in vivo", "settings": "O/W emulsion twice a day; for Wrinkles reduction (%) 4 wrinkles: at 4 weeks", "experimental": "The clinical study was conducted on 40 women with facial wrinkles between 50 and 60 years of age. All volunteers were healthy and without any systemic or skin disease.\nWrinkles were measured using a topographic skin measurement device, a Bio 3D Structure Light Scanner technology, which performs a 3D reconstruction of the image in silicone (ANTERA 3D® and software (Miravex, Ireland).\nThe patients were divided into two groups, which applied the assigned O/W emulsions twice a day for two months. One group (1) applied a free Acetylhexapeptide-8 emulsion on one side of the preorbital area and an emulsion with Acetylhexapeptide-8 encapsulated in PCL and chitosan on the other side. The second group applied an O/W emulsion with free HA on one area of a preorbital area and another of the cosmetic composition of the present invention (Acetylhexapeptide-8, HA, PCL and chitosan) on the contralateral side. All participants were asked not to use any cosmetics containing ingredients that could interfere with the wrinkle status of the skin during the study period, nor were they subjected to exposure to direct sunlight.\nBefore the first application, at 4 and 8 weeks of use, silicone impressions were taken and processed by confocal laser scanning microscopy to evaluate the progress of wrinkles. The maximum depth values within the analysis area were taken as representative values of wrinkles, and the percentage reduction of these values before and after application were calculated as the percentage improvement of skin wrinkles.\nIn this study, measurements of the main roughness parameters such as mean roughness volume and area affected by roughness were obtained. The average roughness volume is the average (three-dimensional) dimension of the depression of the cutaneous microrelief measured in mm^3. The area affected by roughness is the roughness portion of the measured skin area (two-dimensional, measured in mm^2). The improvement was calculated as the percentage change between the images taken before the treatments and two months […].\nReflection mode confocal microscopy and three-dimensional analysis were used to evaluate the different parameters.\nFor this purpose, the 40 female volunteers were divided into two groups, and each group applied twice daily for 2 months two assigned emulsions, one to each eye in the same preorbital area. Before treatment, at 4 and 8 weeks, the decrease in wrinkles was quantified by 3D images analyzed by confocal microscopy."}}}
{"substance": "Acetylhexapeptide-8 [Free Acetylhexapeptide-8]", "values": [{"measurement": "% Penetration", "setting": "[1]", "value": 14, "unit": "%"}, {"measurement": "Tewl After 2 hours", "setting": "[2]; 2 hours after first application, control 16", "value": 15.8, "unit": "g/m^2h"}, {"measurement": "Tewl After 7 days", "setting": "[2]; after 7 days of daily application, control 17", "value": 16.5, "unit": "g/m^2h"}, {"measurement": "decrease in total catecholamine exocytosis / inhibition of the release of neurotransmitters", "setting": "chromaffin cells; Ca2+-induced release, versus control", "value": 20, "unit": "%"}, {"measurement": "Cathecolamine release (%)", "setting": "chromaffin cells; stimulated with 10 µM Ca2+, 37°C, control = 100", "value": 80, "unit": "%"}, {"measurement": "Wrinkles reduction (%) 4 wrinkles", "setting": "[3]", "value": 20.5, "unit": "%"}, {"measurement": "Wrinkles reduction (%) 4 wrinkles", "setting": "[3]; listed as free Acetylhexapeptide-8", "value": 20, "unit": "%"}, {"measurement": "Wrinkles reduction (%) 8 wrinkles", "setting": "[3]; at 8 weeks (end of treatment)", "value": 30, "unit": "%"}, {"measurement": "Decrease area affected by roughness (%)", "setting": "[3]; at 8 weeks", "value": 31.2, "unit": "%"}, {"measurement": "Roughness volume decrease (%)", "setting": "[3]; at 8 weeks", "value": 35, "unit": "%"}]}
